This passage reports IC50 results from PubChem BioAssay AID1645864 (Buhrlage Lab, Dana-Farber Cancer Institute and Novartis …, 2021).

Usually IC50 stands for the concentration at which inhibition is half-maximal.

Active and inactive are the calls of the source.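 How the source made its calls: active means maximal inhibition of USP17 at or above 30% in the confirmation dose-response, a value not among the printed readouts; inactive means the rest.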

The target of this assay is Ubiquitin carboxyl-terminal hydrolase 17-like protein 5 (Homo sapiens) (UniProt A8MUK1). In words: ubiquitin-specific protease 17 inhibitors, concentration series, biochemical, verification of primary actives (AID 1645864). The conditions noted are these: purified USP17, ubiquitin-rhodamine cleavage fluorescence, 3 h.
Ubiquitin carboxyl-terminal hydrolase 17-like protein 5 (Homo sapiens), sequence (A8MUK1 whole entry, looked up): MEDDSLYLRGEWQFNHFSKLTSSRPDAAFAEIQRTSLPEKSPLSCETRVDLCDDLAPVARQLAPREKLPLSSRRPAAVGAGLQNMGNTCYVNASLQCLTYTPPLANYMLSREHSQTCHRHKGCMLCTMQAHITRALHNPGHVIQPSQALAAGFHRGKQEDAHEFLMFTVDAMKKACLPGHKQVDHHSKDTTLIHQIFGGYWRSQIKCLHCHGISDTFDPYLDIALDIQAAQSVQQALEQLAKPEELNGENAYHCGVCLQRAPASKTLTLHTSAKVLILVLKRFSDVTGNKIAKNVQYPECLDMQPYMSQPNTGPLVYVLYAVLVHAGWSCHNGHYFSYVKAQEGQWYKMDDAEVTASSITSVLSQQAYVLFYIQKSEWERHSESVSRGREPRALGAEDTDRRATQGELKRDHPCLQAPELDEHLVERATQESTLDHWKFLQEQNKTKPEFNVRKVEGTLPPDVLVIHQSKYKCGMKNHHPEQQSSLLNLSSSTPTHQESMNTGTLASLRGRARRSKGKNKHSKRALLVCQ
With `CCC/C=C\C#CC/C=C\CCCCCCCC(=O)O`, the IC50 was 2.37 µM.
With `COC1=C(C2=C(OC)C(=O)c3cc4c(c(O)c3C2=O)C(=O)OC(C)C4)C(=O)c2c(cc3c(c2O)C(=O)OC(C)C3)C1=O` (stereo not given), the half-inhibitory concentration (IC50) was 0.0977 µM.
Under `Cc1cccc(-n2cnc(C(=O)NCc3ccc(F)cc3)c2)n1` stands 22.8 µM.
For the compound `O=C1C(O)=C(c2ccc(O)cc2)C(=O)C(O)=C1c1ccccc1`, the 50% inhibitory concentration (IC50) was 6.1 µM.
`CCn1c(SCC(=O)N2c3ccccc3CC2C)nnc1-c1ccc2c(c1)OCCO2` (stereo not given): the 50% inhibitory concentration (IC50) was 34.4 µM.
As to `C=C[C@]1(C)C=C2C(=O)[C@]3(O)OC(=O)[C@@]4(CCCC(C)(C)[C@H]34)[C@@]2(O)CC1`, the IC50 was 29.7 µM.
With `Cc1cc2nc(-c3ccc(SCc4ccccn4)nc3)[nH]c2cc1C`, the concentration for half-maximal inhibition (IC50) was 31.3 µM.
As for `O=C(NCCc1ccccc1F)c1cn2cc(Cl)ccc2n1`, the IC50 is 28.7 µM.
Take `Cc1ccc(Nc2nc(O)c(CC(=O)Nc3ccccc3C)s2)cc1C`: the IC50 is 18 µM.
With `Cc1c(C(=O)Nc2ccc(-c3nnc4n3CCCCC4)cc2)oc2c1ccc1ccccc12`, the IC50 is > 50 µM (inactive).
Regarding `COc1ccc(NC(=O)c2nnn(-c3ccccc3F)c2C)cc1OC`, the IC50 was > 50 µM (inactive).
Turning to `Cc1ccc2c(Nc3ccc(CC(=O)O)cc3)c(C(=O)N3CCCC3)cnc2n1`, the IC50 is > 50 µM (inactive).
As to `CC(C)NS(=O)(=O)c1cccc2c(NC(=O)C(Cc3ccccc3)NC(=O)c3ccccc3)cccc12` (stereo not given), the IC50 was > 50 µM (inactive).
Under `COc1ccc(NC(=O)CN2C(=O)c3ccccc3Sc3ccc(C(=O)N4CCCC4)cc32)cc1OC` stands 26.1 µM.
As for `COc1ccc(-c2nnc(SCc3ccccc3C#N)o2)c(OC)c1`, the IC50 was > 50 µM (inactive).
The value for `CCOc1ccc(CCNC(=O)CCC(=O)Nc2ccc3nc(N4CCN(C)CC4)cc(C)c3c2)cc1OCC` was > 50 µM (inactive); that for `Cc1ccc(-c2ccc(N3CCOCC3)nn2)cc1S(=O)(=O)N1CCOCC1` was > 50 µM (inactive).
Turning to `C=C(NC(=O)C(=C)NC(=O)c1csc(C2=N[C@@H]3c4csc(n4)[C@H]4NC(=O)c5csc(n5)[C@H]([C@](C)(O)[C@@H](C)O)NC(=O)C5CSC(=N5)/C(=C/C)NC(=O)C([C@@H](C)O)NC(=O)c5csc(n5)[C@]3(CC2)NC(=O)[C@H](C)NC(=O)C(=C)NC(=O)[C@H](C)NC(=O)C([C@@H](C)CC)NC2C=Cc3c(C(C)O)cc(nc3[C@H]2O)C(=O)OC4C)n1)C(N)=O` (stereo not given in full), the IC50 is > 50 µM (inactive).
On to `COc1ccc(Cn2c(SCc3ccc(C(=O)NCCc4ccccc4)cc3)nc3ccncc32)cc1`, for which the IC50 is > 50 µM (inactive).
For `Cc1cc(-n2c(C)cc(-c3csc(N)n3)c2C)no1`, the IC50 is > 50 µM (inactive).
As to `Cn1cc(-c2cnc(-c3cccc(F)c3)nc2)cc1C(=O)NCc1cccnc1`, the IC50 is 37.8 µM.
As for `CCC(C)NC(=O)Cn1c(=O)n(-c2ccccc2)c(=O)c2ccc(C(=O)NCc3ccco3)cc21` (stereo not given), the half-maximal inhibitory concentration (IC50) was 45 µM.
Regarding `COc1ccc(NS(=O)(=O)c2ccc(NC(=O)Nc3ccc(Cl)cc3)cc2)cc1`, the IC50 is 23.9 µM.
For the compound `Cn1c(=O)c2cc(C(=O)Nc3ccc(F)cc3)cnc2n(C)c1=O`, the half-inhibitory concentration (IC50) was 22.9 µM.
The value for `O=C(NCc1ccc(Br)cc1)c1ccc(-c2cccnc2)nc1` was 37.5 µM.
On to `COc1ccc(CN2CCCC23CCCN(C(=O)CCc2cccnc2)C3)cc1F` (stereo not given), for which the IC50 was 33.6 µM.
Regarding `O=[N+]([O-])c1ccccc1C(c1c[nH]c2ccccc12)c1c[nH]c2ccccc12`, the IC50 is 24.6 µM.
As for `O=C(Cn1nc2c3c4c(sc3ncn2c1=O)CCCCC4)Nc1ccc(Cl)cc1F`, the IC50 is 2.08 µM.
On to `COc1cc(-c2ccno2)ccc1S(=O)(=O)Nc1ccccc1Cl`, for which the IC50 was > 50 µM (inactive).
Take `O=C(O)c1ccc(C2Cc3c([nH]c(=O)[nH]c3=O)O2)cc1` (stereo not given): the 50% inhibitory concentration (IC50) is 44.9 µM.
As for `COc1ccc(CNC(=O)CCc2nnc3n(Cc4ccccc4Cl)c(=O)c4ccccc4n23)cc1`, the IC50 is 2.65 µM.
Regarding `CNC(=O)c1cc2nc(N(C)C)n(-c3ccccc3)c2s1`, the IC50 was > 50 µM (inactive).
For `CCCC(=O)c1c[nH]c(C(=O)NCc2ccc(F)cc2)c1`, the concentration for half-maximal inhibition (IC50) is 14.5 µM.
Consider `COc1ccc(NC(=O)CNC(=O)c2ccc3nc(-n4cccc4)sc3c2)cc1`, for which the concentration for half-maximal inhibition (IC50) is 3.15 µM.
For `COc1cccc(NC(=O)c2cnc3c(c2)c(=O)n(C)c(=O)n3C)c1`, the IC50 is 2.34 µM.
With `CNc1nc2c(c(=O)n1Cc1ccccc1)CN(C(=O)c1ccc(CN)cc1)CC2`, the half-inhibitory concentration (IC50) was 28.3 µM.
For `CSc1cccc(NC(=O)COc2cccc3ccccc23)c1`, the IC50 is 2.04 µM.
The value for `COc1ccc(OC)c(NC(=O)C2=C(C)Nc3ncnn3C2c2ccccc2OCc2ccc(C)cc2)c1` (stereo not given) was 12.2 µM; that for `COc1ccccc1-c1ccc(SCC(=O)Nc2ccc3c(c2)OCCO3)nn1` was > 50 µM (inactive).
For `Cc1ccccc1C(=O)Nc1ccc(Cc2ccc(NC(=O)c3ccccc3C)c(O)c2)cc1O`, the IC50 was > 50 µM (inactive).
As to `Cc1nc(C(=O)Nc2cccc(Cl)c2Cl)nn1-c1cc(Cl)cc(Cl)c1`, the IC50 was 0.135 µM.
Under `Cc1ccc(-c2nc(Cn3nnc(-c4nc(-c5ccccn5)no4)c3C)c(C)o2)cc1` stands > 50 µM (inactive); under `CCOC(=O)c1c(C)nc2n(Cc3ccccc3)c3ccccc3n12`, 23 µM; under `CC(C)CC[C@H]1O[C@@H](CC(=O)O)Cc2cc3c(c(O)c21)C(=O)c1sc(=O)n(C)c1C3=O`, 0.194 µM.
Take `O=C(Nc1ccc(N2CCOCC2)cc1)c1cc(=O)[nH]c2ccccc12`: the IC50 was 31 µM.
Turning to `Cc1ccc2c(c1)c(=O)c(C(=O)c1ccccc1)cn2CC(=O)Nc1ccc2c(c1)OCCO2`, the IC50 was 3.16 µM.
Consider `COc1ccc(OC)c(-n2c(SCC(=O)N3CCc4ccccc43)nnc2-c2cccc(S(=O)(=O)N(C)C)c2)c1`, for which the half-maximal inhibitory concentration (IC50) is 3.51 µM.
On to `Cc1cccc(-n2ccnc(SCC(=O)Nc3ccc(Cl)cc3F)c2=O)c1`, for which the 50% inhibitory concentration (IC50) is 2.21 µM.
For `O=C(Nc1ccc2c(c1)OCCO2)C1CCN(C(=O)c2ccccc2)CC1`, the IC50 was > 50 µM (inactive).
Under `Cc1ccc(Nc2nc(NCCc3ccccc3)nc3c2cnn3C)cc1` stands 44.6 µM; under `Cc1sc(-c2cccnc2)nc1OC(=O)c1ccc(Cl)c(Cl)c1`, > 50 µM (inactive); under `Cc1cc(C)c2c(-n3cccc3)c(C(=O)NCCc3ccc(S(N)(=O)=O)cc3)sc2n1`, > 50 µM (inactive).
With `COc1ccc(-c2cnnn2-c2ccc(NC(=O)c3c(F)cccc3F)cc2)cc1OC`, the IC50 was > 50 µM (inactive).
The value for `CCC(C(=O)NCc1ccncc1)N(c1cccc(Cl)c1)S(C)(=O)=O` (stereo not given) was > 50 µM (inactive).
For the compound `COc1ccc(NC(=O)CSc2nc(N)c3c4c(sc3n2)COC(C)(C)C4)cc1`, the IC50 is 42.5 µM.
As to `COc1cc2c(cc1OC)-c1cc(Nc3ccc(Br)cc3)nc(=O)n1CC2`, the IC50 was 1.65 µM.
Consider `COc1cc(NC(=O)Cn2c(=O)n(-c3ccc(CC(=O)NC4CCCC4)cc3)c(=O)c3ccccc32)cc(OC)c1`, for which the IC50 was > 5 µM (inactive).
For the compound `CN(Cc1ccccc1)S(=O)(=O)c1ccc2[nH]cc(C(=O)NCc3cccs3)c(=O)c2c1`, the IC50 was 0.749 µM.
In the case of `CN(CCc1ccccc1)c1nccc(N2CCN(C(=O)c3csc(-c4cccnc4)n3)CC2)n1`, the IC50 was > 50 µM (inactive).
The value for `Cc1ccc(NC(=O)CCC(=O)Nc2ccc3nc(N4CCCCC4)cc(C)c3c2)c(Br)c1` was 49.7 µM.
